The results in this text go back to patent US20110082182A1, “THERAPEUTIC ANTIVIRAL PEPTIDES” (INTERMUNE, INC., priority 2009, published 2011).

By EC50 is commonly meant the concentration that produces a half-maximal response. A lower EC50 goes with an effect from little substance. As a reminder, the IC50 is the concentration at which inhibition is half-maximal. A low value points to greater potency in that assay.

Assay [1] concerns HCV sub-genomic replicon (I377/NS3-3') in HuH-7 hepatoma cells (GS4.3). As to the kind of experiment: Quantitation by ELISA of NPTII in the HCV sub-genomic replicon, GS4.3. The format is cell-based. As to conditions: Hepatitis C virus, GS4.3 replicon cells, 72 h. The text has this: Quantitation by ELISA of the Selectable Marker Protein, Neomycin Phosphotransferase II (NPTII) in the HCV Sub-Genomic Replicon, GS4.3
The HCV sub-genomic replicon (I377/NS3-3′, accession No. AJ242652), stably maintained in HuH-7 hepatoma cells, was created by Lohmann et al. Science 285: 110-113 (1999). The replicon-containing cell culture, designated GS4.3, was obtained from Dr. Christoph Seeger of the Institute for Cancer Research, Fox Chase Cancer Center, Philadelphia, Pa.
GS4.3 cells were maintained at 37° C., 5%CO2, in DMEM (Gibco 11965-092) supplemented with L-glutamine 200 mM (100×) (Gibco25030-081), non-essential amino acids (NEAA) (Biowhittaker 13-114E), heat-inactivated (HI) Fetal Bovine Serum (FBS) (Hyclone SH3007.03) and 750 μg/mL geneticin (G418) (Gibco 10131-035). Cells were sub-divided 1:3 or 4 every 2-3 days.
24 h prior to the assay, GS4.3 cells were collected, counted, and plated in 96-well plates (Costar 3585) at 7500 cells/well in 100 μL standard maintenance medium (above) and incubated in the conditions above. To initiate the assay, culture medium was removed, cells were washed once with PBS (Gibco 10010-023) and 90 μl Assay Medium (DMEM, L-glutamine, NEAA, 10% HI FBS, no G418) was added. Inhibitors were made as a 10× stock in Assay Medium, (3-fold dilutions from 10 μM to 56 pM final concentration, final DMSO concentration 1%), 10 μL were added to duplicate wells, plates were rocked to mix, and incubated as above for 72 h.
An NPTII Elisa kit was obtained from AGDIA, Inc. (Compound direct ELISA test system for Neomycin Phosphotransferase II, PSP 73000/4800). Manufacturer's instructions were followed, with some modifications. 10× PEB-1 lysis buffer was made up to include 500 μM PMSF (Sigma P7626, 50 mM stock in isopropanol). […] Plates were read at 450 nm on a Molecular Devices Versamax plate reader.
Inhibitor effect was expressed as a percentage of DMSO-treated control signal, and inhibition curves were calculated using a 4-parameter equation: y=A+4B−A)/(1+((C/x)̂C))), where C is half-maximal activity or EC50.
A general note: An ELISA detects its analyte on a solid surface through an enzyme-linked reagent.

Assay [2] concerns the target T1, NS3/NS4A-2 (full-length HCV NS3 protease) (Hepatitis C virus genotype 1a, UniProt P27958).
T1 construct: Recombinant E. coli or Baculovirus full-length NS3 was diluted to 3.33 μM with assay buffer; made in house; host or cells: E. coli or baculovirus (BV) expression
As to the kind of experiment: NS3 Inhibition Assay (NS3-NS4 protease assay, RETS1 substrate, fluorescence kinetic read). The format is biochemical. As to conditions: NS3/NS4A-2 protease. The method, then: NS3 Complex Formation with NS4A-2.
Recombinant E. coli or Baculovirus full-length NS3 was diluted to 3.33 μM with assay buffer and the material was transferred to an eppendorf tube and placed in a water bath in a 4° C. refrigerator. The appropriate amount of NS4A-2 diluted to 8.3 mM in assay buffer was added to an equal the volume of NS3 above (conversion factor—3.8 mg/272 μL assay buffer). The material was transferred to an eppendorf tube and placed in water bath in a 4° C. refrigerator.
After equilibration to 4° C., equal volumes of NS3 and NS4A-2 solutions were combined in an eppendorf tube, mixed gently with a manual pipettor, and incubated for 15 minutes in the 4° C. water bath. Final concentrations in the mixture are 1.67 μM NS3, 4.15 mM NS4A-2 (2485-fold molar excess NS4A-2).
After 15 minutes at 4° C., the NS3/NS4A-2 eppendorf tube was removed and placed in a room temperature water bath for 10 minutes. NS3/NS4A-2 was aliquoted at appropriate volumes and stored at −80° C. (E. coli NS3 run at 2 nM in assay, aliquot at 25 μL. BV NS3 run at 3 nM in assay, aliquot at 30 μL).
Step a. Sample compounds were dissolved to 10 mM in DMSO then diluted to 2.5 mM (1:4) in DMSO. Typically, compounds were added to an assay plate at 2.5 mM concentration, yielding upon dilution a starting concentration of 50 μM in the assay inhibition curve. Compounds were serial diluted in assay buffer to provide test solutions at lower concentrations.
Step 1. The E. coli. NS3/NS4A-2 was diluted to 4 nM NS3 (1:417.5 of 1.67 μM stock−18 μL 1.67 μM stock+7497 μL assay buffer). […]
The plate was read in kinetic mode on the Molecular Devices SpectraMax Gemini XS plate reader. Reader settings: Read time: 30 minutes, Interval: 36 seconds, Reads: 51, Excitation λ: 335 nm, Emission λ: 495 nm, cutoff: 475 nm, Automix: off, Calibrate: once, PMT: high, Reads/well: 6, Vmax pts: 21 or 28/51 depending on length of linearity of reaction
IC50s are determined using a four parameter curve fit equation, and converted to Ki's using the following Km's: […]

T1 sequence (P27958 1027-1657): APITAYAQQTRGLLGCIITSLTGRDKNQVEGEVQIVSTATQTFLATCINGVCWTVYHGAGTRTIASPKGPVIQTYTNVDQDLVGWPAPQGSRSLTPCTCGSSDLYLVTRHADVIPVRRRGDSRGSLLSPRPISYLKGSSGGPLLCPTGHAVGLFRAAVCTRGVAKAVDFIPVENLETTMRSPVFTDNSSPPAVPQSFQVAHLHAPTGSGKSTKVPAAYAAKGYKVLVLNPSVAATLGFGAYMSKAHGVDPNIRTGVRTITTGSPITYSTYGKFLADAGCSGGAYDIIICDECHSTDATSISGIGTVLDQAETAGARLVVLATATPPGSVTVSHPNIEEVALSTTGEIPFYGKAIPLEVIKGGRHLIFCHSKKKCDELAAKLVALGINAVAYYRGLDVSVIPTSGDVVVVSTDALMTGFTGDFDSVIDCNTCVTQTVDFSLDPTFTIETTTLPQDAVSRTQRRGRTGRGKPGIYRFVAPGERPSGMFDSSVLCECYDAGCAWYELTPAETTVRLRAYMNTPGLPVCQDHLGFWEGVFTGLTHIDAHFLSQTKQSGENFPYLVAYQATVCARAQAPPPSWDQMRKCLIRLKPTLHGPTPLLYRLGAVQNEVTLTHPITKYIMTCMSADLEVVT

As to `CC[C@@H]1C[C@@]12NC(=O)[C@@H]1C[C@H](CN1C(=O)[C@@H](NC(=O)OC(C)(C)C)C(C)(C)C)Oc1nc3ccccc3n1CCC/C=C\CCC1(CC1)S(=O)(=O)NC2=O` [Compound 5], the EC50 in assay [1] is above 1 µM. For the same compound, the IC50 in assay [2] is below 0.1 µM.
With `CC[C@@H]1C[C@@]12NC(=O)[C@@H]1C[C@H](CN1C(=O)[C@@H](NC(=O)OC(C)(C)C)C(C)(C)C)Oc1nc3ccccc3n1C/C=C\CCCC1(CC1)S(=O)(=O)NC2=O` [Compound 1], the half-maximal effective concentration (EC50) in assay [1] was above 1 µM. The IC50 in assay [2] was below 0.1 µM.
In assay [1], `CC[C@@H]1C[C@@]12NC(=O)[C@@H]1C[C@H](CN1C(=O)[C@@H](NC(=O)OC(C)(C)C)C(C)(C)C)Oc1nc3ccccc3n1CCCCCCCC1(CC1)S(=O)(=O)NC2=O` [Compound 6] had a 50% effective concentration (EC50) above 1 µM. For the same compound, in assay [2], the IC50 lay in the range of 0.1 to 1 µM.
